Measured values: paper PMC6008465 (British Journal of Cancer, 2018)
Marks after values point to notes of the source that are not given here.

Tests used:
[1] = Part A pharmacokinetics (plasma and urine, noncompartmental analysis); assay type: in vivo, human
Protocol: In Part A, blood was collected on Cycle 1, Days 1 and 15 at specified intervals prior to, during, and postinfusion (5 min–8 h), and on Days 2, 3, 16, and 17 (24 and 48 h postinfusion). Urine was collected on Cycle 1, Day 1 preinfusion, at 0–8 h, and 8–24 h. In Part B, blood was collected on Cycle 1, Day 1, prior to, during, and at 1–24 h postinfusion. Pharmacokinetic parameters were calculated using noncompartmental analysis.

[2] = system: metastatic BRAF-mutated or WT melanoma; test: Part B tumour response (RECIST 1.0); assay type: in vivo, human; settings: for Duration of SD: one patient; for Median (95% CI) duration of PFS / Median (95% CI) duration of SD: Kaplan-Meier estimate
Protocol: In Part B, an adaptive study design was planned to define an optimal dosing schedule. […] One dose escalation (from 160 mg/m^2 to 320 mg/m^2) was allowed in Schedule II for MTD determination. […] Toxicity was managed as before. Up to 30 patients with BRAF-mutated melanoma and up to 29 patients with BRAF-WT melanoma were to be enrolled in Schedule I. Up to 30 patients were to be enrolled into Schedule II once the MTD was confirmed.
Efficacy was assessed by tumour response determined by investigator review of computed tomography/magnetic resonance imaging scans using Response Evaluation Criteria in Solid tumours version 1.0 (RECIST).[17]

[3] = Cycle 1 Day 15, 80 mg/m^2 (n=3)
[4] = Cycle 1 Day 15, 160 mg/m^2 (n=3)
[5] = Cycle 1 Day 15, 320 mg/m^2 (n=6)
[6] = Cycle 1 Day 15, 400 mg/m^2 (n=1)
[7] = Cycle 1 Day 15, 480 mg/m^2 (n=4)
[8] = Part B, BRAF-WT 320 mg/m^2 once weekly (n=7)
[9] = Part B, BRAF-mutated 160 mg/m^2 twice weekly (n=3)
[10] = Part B, BRAF-mutated 320 mg/m^2 once weekly (n=20)

## CCNc1cc(O)c2c(c1)/C=C/C[C@H](O)[C@H](O)C(=O)/C=C\[C@@H](C)[C@H](C)OC2=O [E6201, (3S,4R,5Z,8S,9S,11E)-14-(ethylamino)-8,9,16-trihydroxy-3,4-dimethyl-3,4,9,19-tetrahydro-1H-2-benzoxacyclotetradecine-1,7 (8H)-dione]
[1]; [3]
  Cmax, mean (%CV): 2590 (154) ng/mL
  Tmax, median (range): 0.25 (0.25–0.5) h
  t½, mean: 5.55 (--) h
[1]; Cycle 1 Day 15, 80 mg/m^2, n=2, %CV 67
  CL, mean (%CV): 76.2^ b (67) L/h
[1]; Cycle 1 Day 15, 80 mg/m^2, n=2, %CV 146
  Vss, mean (%CV): 148^ b (146) L
[1]; [4]
  AUC(0-t), mean (%CV): 4300 (32) ng·h/mL
  CL, mean (%CV): 71.2 (18) L/h
  Cmax, mean (%CV): 5430 (120) ng/mL
  Tmax, median (range): 0.25 (0.25–0.5) h
  Vss, mean (%CV): 110 (74) L
  t½, mean: 4.20 (--) h
[1]; [5]
  AUC(0-t), mean (%CV): 11100 (13) ng·h/mL
  CL, mean (%CV): 49.8 (18) L/h
  Cmax, mean (%CV): 18000 (64) ng/mL
  Tmax, median (range): 0.25 (0.25–0.5) h
  Vss, mean (%CV): 111 (69) L
  t½, mean: 6.83 (--) h
[1]; [6]
  AUC(0-t), mean (%CV): 10500 (--) ng·h/mL
  Cmax, mean (%CV): 21600 (--) ng/mL
  Tmax, median (range): 0.25 (0.25–0.25) h
[1]; [7]
  AUC(0-t), mean (%CV): 11300 (73) ng·h/mL
  CL, mean (%CV): 82 (38) L/h
  Cmax, mean (%CV): 12200 (88) ng/mL
  Tmax, median (range): 0.375 (0.25–0.5) h
  Vss, mean (%CV): 217 (84) L
  t½, mean: 4.78 (--) h
[1]; Day 15 vs Day 1, once-weekly dosing
  Accumulation on multiple dosing: Lack of E6201 accumulation
[1]; Part A
  Mean clearance (CL), range over dose groups: 49.8 to 184 L/h
  Renal clearance (CLR), range over dose groups: 1.65 to 137 mL/h
[1]; Part A, 30-min IV infusion
  Time of peak E6201 concentration (mid-to-end of infusion): 0.25 to 0.5 h
[2]; Part B, BRAF-WT
  Patients with PR / patients: 1/7
  Patients with SD / patients: 1/7
[2]; [8]
  Complete response (CR): 0 n (%)
  Disease control rate (CR+PR+SD): 2 (28.6) n (%)
  Not evaluable (NE): 1 (14.3) n (%)
  Overall response rate (CR+PR): 1 (14.3) n (%)
  Partial response (PR): 1 (14.3)^b n (%)
  Progressive disease (PD): 2 (28.6) n (%)
[2]; Part B, BRAF-WT 320 mg/m^2 once weekly
  Duration of SD: 4 cycles
[2]; Part B, BRAF-WT melanoma (2/7)
  Disease control rate (DCR; complete response + PR + SD): 28.6%
[2]; [9]
  Complete response (CR): 0 n (%)
  Disease control rate (CR+PR+SD): 1 (33.3) n (%)
  Not evaluable (NE): 0 n (%)
  Overall response rate (CR+PR): 0 n (%)
  Partial response (PR): 0 n (%)
  Progressive disease (PD): 1 (33.3) n (%)
  Median (95% CI) duration of PFS: 83.5 (29.0–138.0) days
  Median (95% CI) duration of SD: 138.0 (29.0–138.0) days
[2]; Part B, BRAF-mutated 160 mg/m^2 twice weekly
  Duration of SD: > 4 cycles
[2]; Part B, BRAF-mutated 320 mg/m^2 once weekly
  Patients with SD for ≥4 cycles: 5 patients
[2]; [10]
  Complete response (CR): 0 n (%)
  Disease control rate (CR+PR+SD): 9 (45.0) n (%)
  Not evaluable (NE): 1 (5.0) n (%)
  Overall response rate (CR+PR): 2 (10.0) n (%)
  Partial response (PR): 2 (10.0)^a n (%)
  Progressive disease (PD): 6 (30.0) n (%)
  Median (95% CI) duration of PFS: 73.0 (26.0–166.0) days
  Median (95% CI) duration of SD: 73.0 (29.0–166.0) days
[2]; Part B, BRAF-mutated melanoma
  Patients with PR / patients: 2/23
  Patients with SD / patients: 8/23
[2]; Part B, BRAF-mutated melanoma (10/23)
  Disease control rate (DCR; complete response + PR + SD): 43.5%
[2]; Part B, Total (N=30)
  Complete response (CR): 0 n (%)
  Disease control rate (CR+PR+SD): 12 (40.0) n (%)
  Not evaluable (NE): 2 (6.7) n (%)
  Overall response rate (CR+PR): 3 (10.0) n (%)
  Partial response (PR): 3 (10.0) n (%)
  Progressive disease (PD): 9 (30.0) n (%)
[2]; Part B, all
  Number of partial responses (PR): three
[2]; Part B, all groups
  Patients with SD for ≥4 cycles (3.7 months): seven
[2]; Part B, BRAF-WT melanoma, 320 mg/m^2 once-weekly
  Number of partial responses (PR): 1
[2]; Part B, V600E BRAF-mutated melanoma, 320 mg/m^2 once-weekly
  Number of partial responses (PR): 2
[2]; one patient with BRAF-mutated melanoma who achieved a PR
  Response of brain metastases: brain metastases that responded to treatment
